Results taken from patent US20210317165A1, “ZP3 FRAGMENTS IN IMMUNOTHERAPY OF OVARIAN CANCER” (LABORATOIRE HRA-PHARMA, priority 2018, published 2021).

System: ZP3-specific TCD8
Assay: ELISPOT IFNγ of spleen TCD8 stimulated ex vivo with APC pulsed with each peptide separately
Format: in vivo, HLA-A2/DR1 transgenic mice
Settings: mice immunized with pool A+B, restimulation with each peptide separately
Protocol: HLA-A2/DR1 transgenic mice received three subcutaneous administrations of peptides pool and GM-CSF/CpG adjuvant as follow:
A first group (group 1) of mice received 100 μg/mice of a pool of peptides A+B (SEQ ID NO: 1, 2, 4, 5, 6, 10, 12, 13, 15 and 17) and GM-CSF adjuvant at Day 0 (D0). At D1, CpG wad injected. 100 μg/mice of pool of peptides A+B was injected at D14 and D30. Mice were sacrificed and analyzed at D40.
The ZP3-specific TCD8 response was measured by ex vivo stimulation of TCD8 from spleen of mice with APC pulsed with peptides (each peptides separately). The number of activated TCD8 cells was measured by ELISPOT IFNγ.

## FTVDVFHFA (Peptide of human ZP3) [Peptide 5, hZP3 fragment, position 263]
FIG. 2, listed as SEQ ID NO: 5
  ZP3-specific TCD8 response: strong specific TCD8 response (statistically significant)

## NMIYITCHL (Peptide of human ZP3) [Peptide 13, hZP3 fragment, position 276]
FIG. 2, listed as SEQ ID NO: 13
  ZP3-specific TCD8 response: strong specific TCD8 response (statistically significant)

## LRLMEENWNA (Peptide of human ZP3) [Peptide 6, hZP3 fragment, position 174]
FIG. 2, listed as SEQ ID NO: 6
  ZP3-specific TCD8 response: strong specific TCD8 response (statistically significant)
